# Measurements taken from patent US20060194947A1, “Peptide gap junction modulators” (priority 2002, published 2006).
# Like-named read-outs stand apart in the source and are kept apart here. Where a SMILES comes first, the peptide text is derived from it. [ ]: non-standard residue; d: D form. The star is where a group is joined. Bz = O=C(c1ccccc1)*
# Legend:
# [1] = Oral bioavailability, pharmacokinetic screening (i.v./p.o. cross-over, LC/MS/MS); format: in vivo; conditions: male, rat, plasma, Sprague-Dawley rats
# From the text: The water used for these experiments was of highest quality obtained from a reversed osmosis primary system in combination with a Milli-Q water secondary treatment system (Millipore, Bedford, Mass., USA). Methanol was super gradient quality obtained from Labscan Ltd. (Dublin, Ireland). Formic acid p.a. (98-100%) was obtained from Merck (Darmstadt, Germany). Heptafluorobuturicacid, HPLC grade wAs obtained from Pierce (Rockford, Ill., USA). EDTA stabilised plasma from rat (Sprague-Dawley) was obtained from Harlan Sera Lab Ltd. (Loughborough, UK). Blood samples were collected in potassium EDTA coated microtainers from BD Vacutainer Systems (Plymouth, UK). Sample preparation by ultra filtration was performed using Microcon centrifugal filter devices with a molecular weight cut off of 3000 obtained from Millipore (Bedford, Mass., USA).
# The LC/MS/MS analysis was performed on a Waters Alliance 2790 HPLC instrument in combination with a Quattro Ultima mass spectrometer from Micromass (Manchester, UK). Both the LC and MS were controlled by MassLynx 3.5 software. The LC separations prior to MS/MS detection were performed on an XTerra MS C18 (2.0×50 mm), 3.5 μm particles, (Waters, Milford, Mass., USA).
# Twelve male Sprague-Dawley rats (approx 350 g) were obtained from M&B (Denmark) and catheters were inserted into the femoral vein and artery during Hypnorm®-Dormicum® anaesthesia. After surgery, the rats were allowed to recover for five days before drug administration was initiated.
# The dipeptides (Compound 22, Compound 21, Compound 23, Compound 96, Compound 95 and Compound 54) were obtained as the TFA salts and dissolved in PBS (2.6 mM KCl, 137 mM NaCl, 1.5 mM KH2PO4 and 8.2 mM Na2HPO4 adjusted to pH=7.4) to give concentrations of 500 μM. The dosing volumes were 1 mL/kg corresponding to doses of 500 nmol/kg, respectively. After each experiment the dosing solutions were diluted in 0.5% formic acid in water and analysed by LC/MS/MS for their content of drug substance. The concentrations of drug substance in the dosing solutions were calculated from the responses of standards in the range from 1 to 1000 nM.
# The drug substances were administered to two animals as i.v. and p.o. bolus in a cross-over study design. The p.o. dose was administered to rats fasted for a 17 hours period prior to drug administration. The animals were allowed to rest for 48 hours in between drug administrations. After the first experiment the rats received a blood transfusion with heparin treated blood.
# Prior to drug administration (5 min) the rats received 500 IU heparin as an i.v. bolus and a control blood sample was collected. After drug administration blood samples of approx. 250 μL were collected from the femoral artery at the following time points; before dose (B.D.), 5, 15, 30, 60, 120, 180 and 240 min after i.v. administration and at B.D., 10, 30, 50, 80, 120, 180, 240, and 300 min after p.o. administration. The blood samples were stored on ice until centrifugation for 5 min at 10.000×g (4° C.) and the plasma (100 μL) were transferred to 1.5 mL polypropylene tubes and stored at −20° C. until sample preparation and LC/MS/MS analysis.
# The plasma samples were thawed on ice, and 100 μL plasma was mixed with 100 μL 1% (v/v) formic acid and transferred to microcon YM-3 filter units. The samples were then centrifuged for 1 hr at 8.300×g at room temperature. The filtrates were collected in 300 μL autosampler vials and stored at 4° C. until injection (40 μL) onto the LC column. The chromatography was performed at 50° C. using a linear gradient from 100% buffer A (0.1% formic acid in water) to 100% buffer B (0.1% formic acid in acetonitrile) in 4 min, followed by 3 min wash using buffer B and finally a reequilibration period for 7 min using buffer A. The detection of the drug substances were performed by MS/MS using argon as collision gas (1.3×10^−3 mbar). […]
# [2] = system: calcium-induced arrhythmias (2nd degree AV block); assay: Standard calcium-induced arrhythmia assay; format: in vivo, Male NMRI mice; conditions: mice, i.v. 3 min before CaCl2 infusion; (tarr(testcompound)−tarr(vehicle))×100/tarr(vehicle)
# Procedure: Peptides suitable for administration to cardiac cells can be identified in an in vivo model of calcium-induced arrhythmias according to the model of Lynch et al. (1981) J Cardiovasc. Pharmacol. 3: 49-60. Mice (25-30 g) are anaesthetized with a neurolept anaesthetic combination and an i.v. cannula is inserted into the tail vein. A lead II ECG signal is recorded continuously by positioning a stainless steel ECG electrodes on the right forelimb and on the left hind limb. The ground electrode is placed on the right hind limb. The signal is amplified (×5.000-10.000) and filtered (0.1-150 Hz) via a Hugo Sachs Electronic model 689 ECG module. The analog signal is digitized via a 12 bit data acquisition board (Data Translation model DT321) and sampled at 1000 Hz using the Notocord HEM 3.1 software for Windows NT. After a 10-minute equilibration period, the test sample of peptide is injected into the tail vein. Mice pre-treated with buffer are tested as a measure of the control level in untreated animals. The injection volume is 100 μl in all experiments.
# Infusion of CaCl2 (30 mg/ml, 0.1 ml/min≈100 mg/kg/min (calcium chloride-2-hydrate, Riedel-de Haën, Germany)) is started 3 min after i.v. administration of drug or vehicle. The time lag to onset of 2nd degree AV-block is determined as the time from the start of CaCl2 infusion until the first arrhythmic event occurs. An event of 2nd degree AV-block is defined as intermittent failure of the AV conduction characterised by a P-wave without the concomitant QRS complex.
# Responses are expressed relative to the time until 2nd degree AV-block occurred in vehicle treated mice. The maximal effect of compounds (e.g., peptides, AAP, AAP10 or controls) is determined. […] Preferably, […], the peptides provide at least about 40% of the activity of AAP, for example at least about 50% of the activity of AAP, such as about 60% of the activity of AAP, for example at least about 70% of the activity of AAP, such as at least about 80% of the activity of AAP, for example at least about 90% of the activity of AAP, for example at least about substantially the same activity of AAP, such as about 110% of the activity of AAP, for example at least about 120% of the activity of AAP, such as at least about 130% of the activity of AAP, for example at least about 140% of the activity of AAP, such as about 150% of the activity of AAP, for example at least about 160% of the activity of AAP, such as at least about 170% of the activity of AAP, for example at least about 180% of the activity of AAP, preferably at least about 190% of the activity of AAP, more preferably at least about 200 or greater % of the activity of AAP (i.e., the peptides show time lags of approximately the same duration as induced by AAP).
# The anti-arrhythmic effect of the dipeptides was determined in a model of calcium-induced arrhythmias according to the model of Lynch et al.. Male NMRI mice (25-30 g; Bomholdtgaard, LI. Skendsved, Denmark) were anaesthetised with a neurolept anaesthetic combination (Hypnorm® (fentanyl citrate 0.315 mg/ml and fuanisone 10 mg/ml)+midazolam (5 mg/ml)). Commercial solutions of Hypnorm® and midazolam were diluted 1:1 in distilled water, and one part diluted Hypnorm® was mixed with one part diluted midazolam. Anaesthesia was induced by s.c. administration of this solution in a dose of 50-75 μl/10 gram mouse.
# An i.v. cannula was inserted into the tail vein. The lead II ECG signal was recorded continuously by positioning of stainless steel ECG electrodes on the right forelimb and on the left hind limb. The ground electrode was placed on the right hind limb. The signal was amplified (×5.000-10.000) and filtered (0.1-150 Hz) via a Hugo Sachs Electronic model 689 ECG module. The analogue signal was digitised via a 12-bit data acquisition board (Data Translation model DT321) and sampled at 1000 Hz using the Notocord HEM 3.1 software for Windows NT. […]
# [3] = system: Human primary osteoblasts; assay: Osteoblast activity (ALP assay); format: cell-based; conditions: cell lysate, stimulated 1×10^−13 to 1×10^−6 for the last 4 days, compared to vehicle treated control cultures
# Procedure: Cells also can be measured for the presence of alkaline phosphatase activity to provide a general measure of osteoblast activity. In one aspect, cells are plated in 96-well plates at a concentration of 8000 cells/well (hOB) or 3000 cells/well (ROS) in 200 μl normal culture medium. On day 4 (or day 3 for ROS cells), cells are washed with 200 μl MEM, 0.1% BSA (Sigma, Cat.No. A-9418). Samples comprising a suitable medium (e.g., 200 μl MEM, 0.1% BSA) containing various concentrations of peptides, control, AAP or AAP10 are added to the cells, and culture is continued for about 4 days (2 days for ROS cells).
# On about day 8 (preferably day 5 for ROS cells), cells are assayed for alkaline phosphatase using an Alkaline Phosphatase (ALP) assay such as is known in the art. ALP assays are generally colorimetric endpoint methods for measuring enzyme activity, and can be performed using an Alkaline Phosphatase Kit (Sigma, Cat.No. 104-LL). Preferably, cells are washed once with 200 μl PBS+Ca, Mg, 100 μl Alkaline Buffer Solution is added to each well and the cells are incubated at 37° C. for 10 minutes. 100 μl Substrate Solution is subsequently added to each well and the plate is incubated at 37° C. for 30 min. 100 μl 2.0 N NaOH is added to each well to stop the reaction. Absorbance is measured using a plate reader at 405 nm.
# Human primary osteoblasts were obtained from bone marrow biopsies of the posterior iliac spine from voluntary donors. Cells were used at 6 weeks of culturing. Cells were cultured in 24-well plates in an 8 days process and stimulated with the test compounds in concentrations from 1×10^−13 to 1×10^−6 for the last 4 days of the experiment. Cell lysate was collected for determination of ALP activity. hOB cells from 10-15 donors were used for the experiments. For ALP measurements a commercially available kit (Alkaline Phosphatase Kit, Sigma-Aldrich Denmark A/S) was used. All determinations were performed according to the manufacturer's recommendations.
# ALP was determined on cell lysate collected at termination of the experiment. Measurements were compared with and to vehicle treated control cultures.
# Data are presented as means and standard deviations or medians and percentiles as appropriate. Two-way ANOVA is performed using Fisher's LSD test for post-hoc comparisons, using a 0.05 level of significance.
# [4] = oral, TFA salts in PBS, 500 nmol/kg i.v. and p.o. bolus, p.o. fasted 17 hours, dose normalised AUCpo/AUCiv, read-out: F (%) Mean (mean bioavailability)
# [5] = oral administration 500 nmol/kg, read-out: bioavailability
Compound,"bioavailability [1, 4]","bioavailability [1, 5]",% response (time lag to onset of 2nd degree AV block relative to vehicle) [2],ALP activity relative to vehicle control (ratio) [3]
"COc1ccc(C(=O)NCCCC[C@@H](N)C(=O)NCC(=O)O)cc1 [Compound 21, H-D-Lys(4-methoxybenzoyl)-Gly-OH]",2.6%,2 to 8%,55.0%,–
H-Gly-Lys(4-cyanobenzoyl)-OH [Compound 3],–,–,37.0%,–
"CC(C)(C)c1ccc(C(=O)NCCCC[C@@H](N)C(=O)NCC(=O)O)cc1 [Compound 54, H-D-Lys(4-t-butylbenzoyl)-Gly-OH]",7.2%,2 to 8%,61.3%,–
"N[C@H](CCCCNC(=O)c1ccc([N+](=O)[O-])cc1)C(=O)NCC(=O)O [Compound 22, H-D-Lys(4-nitrobenzoyl)-Gly-OH]",31%,10 to 31%,52.0%,1.12
"COc1ccc(CNC(=O)C[C@@H](N)C(=O)N[C@@H](C)C(=O)O)cc1 [Compound 95, H-D-Asn(NH(4-methoxybenzyl))-Ala-OH]",29%,10 to 31%,0.3%,1.14
H-Asn(NH(4-methoxybenzyl))-D-Ala-OH [Compound 80],–,–,33%,–
"C[C@H](NC(=O)[C@H](N)CC(=O)NCc1ccc([N+](=O)[O-])cc1)C(=O)O [Compound 96, H-D-Asn(NH(4-nitrobenzyl))-Ala-OH]",15%,10 to 31%,54%,–
H-Gly-Lys(4-methoxybenzoyl)-OH [Compound 4],–,–,69.0%,–
"N[C@H](CCCCNC(=O)c1ccccc1)C(=O)NCC(=O)O [Compound 23, H-D-Lys(benzoyl)-Gly-OH] (H-[dK](Bz)-Gly-OH)",10%,10 to 31%,−8.0%,1.08
H-Lys(4-nitrobenzoyl)-Gly-OH [Compound 7],–,–,40%,–
H-Gly-Lys(4-nitrobenzoyl)-OH [Compound 1],–,–,52.0%,1.08
